Source: patent US8338424B2, “Guanidine-containing compounds useful as muscarinic receptor antagonists” (Theravance, Inc., priority 2007, dated 2012)

Tests used:
[1] = system: rats (Sprague-Dawley); assay: Rat Einthoven assay (bronchoprotection against MCh); format: in vivo; settings: for ID50 (potency): 1.5 hrs post-dose
Experimental: All test compounds are diluted in sterile water and are dosed via the inhalation route (IH). The rats (Sprague-Dawley, male, 250-350 g) are exposed to the aerosol generated from an LC Star Nebulizer Set and driven by a mixture of gases (5% CO2/95% atmospheric air). Each test compound solution is nebulized over a 10 minute time period in a pie shaped dosing chamber capable of holding six rats. At predetermined time points after inhalation of compound, the Einthoven assay is performed.
Thirty minutes prior to the start of pulmonary evaluation, the animals are anesthetized with inactin (thiobutabarbital, 120 mg/kg IP). The jugular vein is catheterized with saline filled polyethylene catheters (PE-50) and used to infuse MCh. The trachea is then dissected and cannulated with a 14G needle and used for rat ventilation during pulmonary evaluation. Once surgery is complete, rats are ventilated using a piston respirator set at a stroke volume of 1 ml/100 g body weight but not exceeding 2.5 ml volume, and at a rate of 90 strokes per minute.
The changes in pressure that occur with each breath are measured. Baseline values are collected for at least 2.5 minutes then rats are challenged non-cumulatively with 2-fold incremental increases of the bronchoconstrictor MCh (5, 10, 20, 40 and 80 μg/ml). The MCh is infused for 2.5 minutes from a syringe pump at a rate of 2 mL/kg/min. The animals are euthanized upon completion of the studies.
Changes in ventilation pressure (cm H20) in treated animals are expressed as % inhibition of MCh response relative to control animals.
Standard muscarinic antagonists were evaluated in the rat Einthoven assay 1.5 hrs post-dose.
Standards tiotropium and ipratropium were also evaluated 24 hr and/or 6 hr post-dose in the rat Einthoven assay. […] The observed loss of activity at this time point (6 hr) is consistent with its relatively short duration of action in the clinic.

[2] = system: rats (Sprague-Dawley); assay: Rat antisialagogue assay (pilocarpine-induced salivation); format: in vivo; settings: evaluated at 1, 6, and 24 hr post-dose
Experimental: Rats (Sprague-Dawley, male, 250-350 g) are dosed, anesthetized and cannulated as described for Assay 3. At predetermined time points and after surgery, animals are placed on their dorsal side at a 20° incline with their head in a downward slope. A pre-weighed gauze pad is inserted in the animal's mouth and the muscarinic agonist pilocarpine (PILO) (3 mg/kg, iv.) is administered. Saliva produced during 10 minutes post-PILO is measured gravimetrically by determining the weight of the gauze pad before and after PILO. Antisialagogue effects are expressed as % inhibition of salivation relative to control animals.
The rat antisialagogue assay was developed to assess systemic exposure and calculate the lung selectivity index (LSI) of test compounds. The standard, tiotropium, was evaluated in this model at 1, 6, and 24 hr post-dose. […] This finding is consistent with the peak effects observed in the Einthoven assay.
This model is a modified version of the procedure described in Rechter, “Estimation of anticholinergic drug effects in mice by antagonism against pilocarpine-induced salivation” Ata Pharmacol Toxicol 24:243-254 (1996). The mean weight of saliva in vehicle-treated animals, at each pre-treatment time, is calculated and used to compute % inhibition of salivation, at the corresponding pre-treatment time, at each dose.

SMILES | ID50 (potency) ([1]; inhalation) | fold less potent 6-hr post-dose compared to 1.5 hr potency ([1]; 6-hr post-dose, 10 and 30 μg/ml) | 6 hr versus 24 hr potency values ([1]; 6 hr and 24 hr post-dose) | fold more potent at 6 hr and 24 hr compared to 1.5 hr potency ([1]; 6 hr and 24 hr post-dose) | time of peak bronchoprotection post-dose ([1]; inhalation) | time post dose at which most potent at inhibiting pilocarpine-induced salivation [2]
C[N+]1(C)CCC(OC(=O)C(O)(c2ccccc2)C2CCCC2)C1 (centres unmarked) [glycopyrrolate] | 15 µg/mL |  |  |  |  | 
CC(C)[N+]1(C)[C@@H]2CC[C@H]1C[C@@H](OC(=O)C(CO)c1ccccc1)C2 (some centres unmarked) [ipratropium] | 4.4 µg/mL | about 3 fold |  |  |  | 
C[N+]1(C)[C@@H]2C[C@@H](OC(=O)C(O)(c3cccs3)c3cccs3)C[C@H]1[C@@H]1O[C@@H]12 [tiotropium] | 6 µg/mL |  | not significantly different from each other | about 2 fold | 6 h | 6 h
